Results taken from patent publication US5622972A, “Method for treating a mammal infected with respiratory syncytial virus” (priority 1996, dated 1997).
Where “and” joins values, the source holds several entries; their conditions need not be identical. Identical values can stand only once. Like-named read-outs stand apart in the source and are kept apart here.

Experiments:
[1] = Cytotoxicity in uninfected HEp-2 cells (MTT), same assay; format: cell-based; conditions: human, hep-2 cells
Excerpt: (§1) The tetrazolium based cell viability assay is based upon the ability of mitochondrial dehydrogenase which is present in viable cells to catalyze the reduction of a yellow tetrazolium salt known as MTT [3-(4,5-dimethylthiazol-2-yl)-2,5-diphenylthtiazolium bromide] to a dark blue/purple formazon product, generally as described by K. Rubino et al., J. Virological Methods, 39, 55-67 (1992)
(§2) Formazan is only slightly soluble in aqueous solutions, and therefore appears as dark cell-associated crystals. The crystals may be readily solublized in an organic solvent and the absorbance of the resulting blue/purple solution may be quantified using a multi-well plate spectrophotometer.
(§3) RSV infection results in a marked reduction in cell viability and thus a lowered rate of formazan production. The assay method gives a very low absorbance value (practically zero) in wells which contain virus-infected cells and no compound or a compound which lacks anti-RSV activity. Compounds which inhibit RSV replication should prevent cell death and will therefore result in an increased intensity of color of the formazan solution. The measurement of viral growth as a function of cell viability allows the assay to be used for establishing levels of compound cytotoxicity in uninfected cells within the same assay. Thus, the assay provides a rapid colorimetric method for measuring RSV specific cytopathic effect.
(§4) The HEp-2 cells and RSV strain A2 virus which are used in the assay are publicly available and were obtained from the American Tissue Culture Collection. HEp-2 cells correspond to ATCC accession no. CCL32; and Respiratory Syncytial Virus, strain A2 corresponds to ATCC accession no. VR-1302. Respiratory syncytial virus was grown (i.e., multiplied) and titered in HEp-2 cells.
(§5) The RSV inhibition assay was carried out as follows. The assay was performed in 96 well microtiter plates seeded with 2.5×10^4 cells per well. To provide a sufficient number of cells to seed the plates, stock cultures of HEp-2 cells were first grown in tissue culture flasks to about 80-100% confluency. The cell layer was washed with room temperature PBS (without calcium and magnesium) and then trypsinized (JRH Biosciences cat. #59-22877P) in a minimal volume of trypsin solution at 37° C. to detach them from the growth surface. Detached cells were resuspended and carefully dispersed in Minimal Essential Medium (MEM) (JRH Biosciences cat. #210-3510) containing 2% FBS (fetal bovine serum) and the concentration of viable cells was determined by trypan blue exclusion. Cell density was adjusted to 2.5×10^5 viable cells/ml by further dilution in MEM+2% FBS.
(§6) Test compound(s) and positive control (ribavirin) were added and serially diluted in the microtiter plate to the desired concentrations (8 replicates/compound/concentration plus 8 control wells/plate which received no compound).
(§7) The cell suspension was divided into a first portion to which respiratory syncytial virus (RSV A2) was added at a multiplicity of infection of 1, and a second portion to which no virus was added. The virus-infected cell suspension was mixed by low speed vortexing and 100 μl of the virus-infected cell suspension was immediately added to half of the wells in the 96 well plate (corresponding to 4 replicates of each compound dilution). 100 μl of the virus-free cell suspension was added to the other half of the wells in the microtiter plate (corresponding to the other 4 replicates for each compound and dilution). A multiplicity of infection equal to 1 was selected based on the observation this concentration of virus is just sufficient to produce a cytopathic effect that essentially eliminated MTT metabolism in infected, untreated cells during the time course of the assay (determined previously by a viral dilution assay).
(§8) The plates were incubated at 37° C., 5% CO2 for 5 to 6 days. […]

HEp-2 cells = assay: as above; format: cell-based; conditions: 5 day assay, drug added on day 1, 7200 min
Excerpt: as §1, §2, §3, §4, §5, §6, §7, §8

[2] = Cytotoxicity in uninfected HEp-2 cells, single concentration of 200 μM replenished daily for 5 days; format: cell-based; conditions: human, solvent PBS (ribavirin: water)
Excerpt: as §1, §3, §4
(§9) The RSV inhibition assay was carried out as follows. The assay was performed in 96 well microtiter plates seeded with 2.5×10^4 cells per well. […] Detached cells were resuspended and carefully dispersed in Minimal Essential Medium (MEM) (JRH Biosciences cat. #210-3510) containing 2% FBS (fetal bovine serum) and the concentration of viable cells was determined by trypan blue exclusion. […]
The cell suspension was divided into a first portion to which respiratory syncytial virus (RSV A2) was added at a multiplicity of infection of 1, and a second portion to which no virus was added. […] A multiplicity of infection equal to 1 was selected based on the observation this concentration of virus is just sufficient to produce a cytopathic effect that essentially eliminated MTT metabolism in infected, untreated cells during the time course of the assay (determined previously by a viral dilution assay).
(§10) After the incubation period, MTT (Sigma Chemical Co., St. Louis, Mo., Cat. #M2128) was dissolved in serum free MEM to give a 3 mg/ml solution and 100 μl of MTT solution was added to each well and the plates further incubated for 2 hours at 37° C. […] The optical density of the formazan/isopropanol solution from each well was determined using a Dynatech MR5000 multiplate reader at 570 nm with a 630 nm reference. […]

[3] = system: respiratory syncytial virus (RSV A2); assay: RSV inhibition assay: tetrazolium (MTT) based cell viability assay in RSV-infected HEp-2 cells (serial dilutions); conditions: for EC50: human respiratory syncytial virus
Excerpt: as §1, §2
RSV infection results in a marked reduction in cell viability and thus a lowered rate of formazan production. […] The measurement of viral growth as a function of cell viability allows the assay to be used for establishing levels of compound cytotoxicity in uninfected cells within the same assay. Thus, the assay provides a rapid colorimetric method for measuring RSV specific cytopathic effect.
as §4, §5, §6
as §7, with “dilution).” for “dilution). A multiplicity of infection equal to 1 was selected based on the observation this concentration of virus is just sufficient to produce a cytopathic effect that essentially eliminated MTT metabolism in infected, untreated cells during the time course of the assay (determined previously by a viral dilution assay).”
The plates were incubated at 37° C., 5% CO2 for 5 to 6 days.
After the incubation period, MTT (Sigma Chemical Co., St. Louis, Mo., Cat. #M2128) was dissolved in serum free MEM to give a 3 mg/ml solution and 100 μl of MTT solution was added to each well and the plates further incubated for 2 hours at 37° C. The reaction was stopped by aspiration of the media to chemical waste, being careful not to remove the formazan crystals, and 200 μl of isopropanol was added to the wells to dissolve the crystals.

[4] = cited from earlier work
[5] = system: respiratory syncytial virus (RSV A2); format: cell-based; conditions: human, hep-2 cells, 120 h, 200 µM
Excerpt: as §1
RSV infection results in a marked reduction in cell viability and thus a lowered rate of formazan production. The assay method gives a very low absorbance value (practically zero) in wells which contain virus-infected cells and no compound or a compound which lacks anti-RSV activity. […]
as §9, with “follows.” for “follows. The assay was performed in 96 well microtiter plates seeded with 2.5×10^4 cells per well.”
as §10

CCCCN1C[C@H](O)[C@@H](O)[C@H](O)[C@H]1CO [Ex. 6, 1,5-(Butylimino) -1,5-dideoxy-D-glucitol]
CC50 at 120 h ([1]; solvent DMSO, 5 day assay, drug added on day 1): 100 µM | CC50 at 120 h ([1]; solvent DMSO, 6 day assay, drug added on day 1, extrapolated): 365 µM | CC50 at 120 h ([1]; solvent PBS, 5 day assay, drug added on day 1, extrapolated): 76200 µM | CC50 at 120 h ([1]; solvent PBS, 6 day assay, drug added on day 1, extrapolated): 9400 µM | CC50 (HEp-2 cells; solvent DMSO): 156 µM | cytotoxicity at 120 h, 200 µM [2]: 17% | EC50 ([3]; HEp-2, 120 h, HEp-2, solvent PBS, 5 day assay, drug replenished daily, read-out: ~EC50): 45 µM | EC50 ([3]; HEp-2, 120 h, HEp-2, solvent PBS, 5 day assay, drug replenished on day [number not given], read-out: ~EC50): 185 µM | EC50 ([3]; HEp-2, HEp-2, solvent DMSO, 6 day assay, drug added on day 1, extrapolated, read-out: ~EC50): 250 µM | EC50 ([3]; HEp-2, HEp-2, solvent PBS, 6 day assay, drug added on day 1, read-out: ~EC50): 431 µM | CTI ([3]; solvent PBS, 5 day assay, drug added on day 1, from extrapolated CC50 and EC50): 275.5 | CTI ([3]; solvent PBS, 6 day assay, drug added on day 1, from extrapolated CC50, 7200 min): 21.8

CCCCN1CC(OC(C)=O)C(OC(C)=O)C(OC(C)=O)C1COC(C)=O [Ex. 7, 1,5-(Butylimino)-1,5-dideoxy-D-glucitol, tetraacetate]
cytotoxicity at 120 h, 200 µM [2]: 11% | enzymatic conversion in vivo of prodrug [4]: enzymatically converted in vivo to the compound of Ex. 6

OCC1C(O)C(O)C(O)CN1CCCc1ccccc1 [compound 43, 1,5-(3-Phenylpropylimino)-1,5-dideoxy-D-glucitol]
cytotoxicity at 120 h, 200 µM [2]: 10%

NC(=O)c1ncn([C@@H]2O[C@H](CO)[C@@H](O)[C@H]2O)n1 [ribavirin, 1-beta-D-ribofuranosyl-1H-1,2,4-triazole-3-carboxamide]
% CELL PROTECTION / % CYTOTOXICITY (CTI) [5]: 1.6 | CC50 at 120 h ([1]; solvent water, 5 day assay, drug added on day 1): 38.3 µM | CC50 at 120 h ([1]; solvent water, 5 day assay, drug replenished daily): 40 µM | CC50 at 120 h ([1]; solvent water, 5 day assay, drug replenished on day [number not given]): 20.4 µM | CC50 at 120 h ([1]; solvent water, 6 day assay, drug added on day 1): 179 µM | CC50 (HEp-2 cells; solvent water): 32.4 µM and 62.8 µM and 52.4 µM | cytotoxicity at 120 h, 200 µM [2]: 65% | EC50 ([3]; HEp-2, 120 h, HEp-2, solvent water, 5 day assay, drug replenished daily): 0.1 µM | EC50 ([3]; HEp-2, 120 h, HEp-2, solvent water, 5 day assay, drug replenished on day [number not given]): 2.6 µM | EC50 ([3]; HEp-2, HEp-2, solvent water, 6 day assay, drug added on day 1): 19.1 µM
